According to patent US20250000843A1, “LIGNAN-INSPIRED COMPOUNDS, METHODS OF MAKING, AND USING THEREOF” (IOWAIBO, INC., priority 2023, published 2025):

Key:
[1] = system: PC3, a human prostate cancer cell line; assay: MTT toxicity assay in PC3 prostate cancer cells; format: cell-based
Protocol: Toxicity of the dibenzyl butyl lactone derivative (3-[(3,4-dimethoxyphenyl)cyclopentyl], 4-[(3-hydroxyphenol)methyl]oxolan-2-one) in breast cancer cells was evaluated using MTT assay. The MTT toxicity test is a colorimetric assay to measure cells' metabolic activity by serving as a substrate of cellular enzymes that reduce the tetrazolium orange dye, MTT (3-(4,5-Dimethylthiazol-2-yl)-2,5-diphenyltetrazolium bromide) to its insoluble, formazan, giving a purple color. The rate of conversion is directly proportional to cells' mitochondrial metabolic activity via NAD (P) H-dependent cellular oxidoreductase enzymes and serves as a surrogate marker of cell viability.
Cells previously expanded were seeded in 96 well plates at 1.9×10^5 and 9.6×10^4 cells/plate for 24- and 72-hours treatment respectively. This concentration is known to show the best window for the MTT assay, with better sensitivity and low variability.
5 mg of powdered enterolactone, dibenzyl butyl lactone derivative enantiomer A, and dibenzyl butyl lactone derivative enantiomer B were dissolved in 500 μl of DMSO at room temperature. Eight-point curves, ⅓ dilutions (highest concentration 125 μM), were prepared.
Twenty-four hours following the seeding process, the cells were washed once with phosphate buffered saline (PBS) and treated with the respective compounds in cell culture media. Each condition was tested in triplicates. For positive and negative controls, 8 mM methyl methane sulfonate (MMS) and DMSO 100% were used respectively.
Following compound addition, the plates were incubated for 24 and 72 hours. After the treatment period, cells were washed twice with PBS and media was replaced with MTT reagent at 0.5 mg/ml in Dulbecco's modified Eagle medium (DMEM) without phenol red. The plates were gently shaken and incubated for 4 hours. After the incubation the medium was removed and replaced by DMSO. The plates were gently shaken to solubilize the formazan crystals. Absorbance was measured using an Envision multiplate reader at a wavelength of 570 nm.
Toxicity of the dibenzyl butyl lactone derivative (3-[(3,4-dimethoxyphenyl)cyclopentyl], 4-[(3-hydroxyphenol)methyl]oxolan-2-one) in prostate cancer cells was evaluated using MTT assay. The same methods as those used in Example 2 were employed, except the cell line used was PC3, a human prostate cancer cell line, and cell cultures were established in Kaighn's modification of Ham's […] medium.
MTT assay results are shown in Tables 16-21 and expressed as the percentage of cell death after treatment.

[2] = system: human induced pluripotent stem (iPS) cells; format: cell-based; conditions: human
Protocol: The dibenzyl butyl lactone derivative enantiomer A and B were compared to enterolactone and tested to determine toxicity using a human pluripotent stem (hPS) cell-based assay that predicts the developmental toxicity potential. […] The current study was conducted using human induced pluripotent stem (iPS) cells.
The impact of test article exposure on ornithine and cystine metabolism in human induced pluripotent stem (iPS) cells was measured for three test articles (dibenzyl butyl lactone derivative enantiomer A, dibenzyl butyl lactone derivative enantiomer B, and enterolactone) and prediction of the potential for developmental toxicity was made through application of the hPS cell-based assay. Exposure spanned a range of eight treatment levels per test article ranging from 0.03-100 μM.
The observed decrease in the o/c ratio following exposure to each test article is indicative of the potential for developmental toxicity and/or embryo lethality in vivo at or above the dTP concentration. FIGS. 15A-C show the o/c ratio of dibenzyl butyl lactone derivative enantiomer A (FIG. 15A), dibenzyl butyl lactone derivative enantiomer B (FIG. 15B), and (+/−) enterolactone (FIG. 15C). The graphs in FIGS. 15A-C show the cell viability and o/c/ ratio over concentrations of 0.03-100 μM with the straight horizontal line illustrating the developmental toxicity threshold of 0.85.

O=C1OCC(Cc2ccc3c(c2)OCO3)/C1=C\c1cccc(O)c1 (single isomer, unassigned) [Enantiomer A, 3-[(3,4-dimethoxyphenyl)cyclopentyl], 4-[(3-hydroxyphenol)methyl]oxolan-2-one]
Cell death #1 (%) ([1]; PC3, 24 hours, 0.06 μM): −10.92% | Cell death #2 (%) ([1]; PC3, 24 hours, 0.06 μM): −13.82% | Cell death #3 (%) ([1]; PC3, 24 hours, 0.06 μM): −11.02% | Cell death (%) MEAN ([1]; PC3, 24 hours, 0.06 μM): −11.92% | Cell death #1 (%) ([1]; PC3, 24 hours, 0.17 μM): −27.17% | Cell death #2 (%) ([1]; PC3, 24 hours, 0.17 μM): −17.50% | Cell death #3 (%) ([1]; PC3, 24 hours, 0.17 μM): −8.79% | Cell death (%) MEAN ([1]; PC3, 24 hours, 0.17 μM): −17.82% | Cell death #1 (%) ([1]; PC3, 24 hours, 0.51 μM): −2.70% | Cell death #2 (%) ([1]; PC3, 24 hours, 0.51 μM): −15.18% | Cell death #3 (%) ([1]; PC3, 24 hours, 0.51 μM): −10.44% | Cell death (%) MEAN ([1]; PC3, 24 hours, 0.51 μM): −9.44% | Cell death #1 (%) ([1]; PC3, 24 hours, 1.54 μM): −29.20% | Cell death #2 (%) ([1]; PC3, 24 hours, 1.54 μM): −24.37% | Cell death #3 (%) ([1]; PC3, 24 hours, 1.54 μM): −23.78% | Cell death (%) MEAN ([1]; PC3, 24 hours, 1.54 μM): −25.78% | Cell death #1 (%) ([1]; PC3, 24 hours, 4.63 μM): −17.98% | Cell death #2 (%) ([1]; PC3, 24 hours, 4.63 μM): −21.37% | Cell death #3 (%) ([1]; PC3, 24 hours, 4.63 μM): −15.27% | Cell death (%) MEAN ([1]; PC3, 24 hours, 4.63 μM): −18.21% | Cell death #1 (%) ([1]; PC3, 24 hours, 13.89 μM): −26.49% | Cell death #2 (%) ([1]; PC3, 24 hours, 13.89 μM): −20.40% | Cell death #3 (%) ([1]; PC3, 24 hours, 13.89 μM): −18.56% | Cell death (%) MEAN ([1]; PC3, 24 hours, 13.89 μM): −21.82% | Cell death #1 (%) ([1]; PC3, 24 hours, 41.67 μM): −6.18% | Cell death #2 (%) ([1]; PC3, 24 hours, 41.67 μM): −0.76% | Cell death #3 (%) ([1]; PC3, 24 hours, 41.67 μM): −12.85% | Cell death (%) MEAN ([1]; PC3, 24 hours, 41.67 μM): −6.60% | Cell death #1 (%) ([1]; PC3, 24 hours, 125.00 μM): 32.42% | Cell death #2 (%) ([1]; PC3, 24 hours, 125.00 μM): 28.74% | Cell death #3 (%) ([1]; PC3, 24 hours, 125.00 μM): 33.00% | Cell death (%) MEAN ([1]; PC3, 24 hours, 125.00 μM): 31.39% | Cell death #1 (%) ([1]; PC3, 72 hours, 0.06 μM): −39.43% | Cell death #2 (%) ([1]; PC3, 72 hours, 0.06 μM): −40.43% | Cell death #3 (%) ([1]; PC3, 72 hours, 0.06 μM): −33.95% | Cell death (%) MEAN ([1]; PC3, 72 hours, 0.06 μM): −37.94% | Cell death #1 (%) ([1]; PC3, 72 hours, 0.17 μM): −43.42% | Cell death #2 (%) ([1]; PC3, 72 hours, 0.17 μM): −40.55% | Cell death #3 (%) ([1]; PC3, 72 hours, 0.17 μM): −38.31% | Cell death (%) MEAN ([1]; PC3, 72 hours, 0.17 μM): −40.76% | Cell death #1 (%) ([1]; PC3, 72 hours, 0.51 μM): −63.73% | Cell death #2 (%) ([1]; PC3, 72 hours, 0.51 μM): −69.58% | Cell death #3 (%) ([1]; PC3, 72 hours, 0.51 μM): −63.23% | Cell death (%) MEAN ([1]; PC3, 72 hours, 0.51 μM): −65.51% | Cell death #1 (%) ([1]; PC3, 72 hours, 1.54 μM): −46.91% | Cell death #2 (%) ([1]; PC3, 72 hours, 1.54 μM): −52.39% | Cell death #3 (%) ([1]; PC3, 72 hours, 1.54 μM): −53.51% | Cell death (%) MEAN ([1]; PC3, 72 hours, 1.54 μM): −50.94% | Cell death #1 (%) ([1]; PC3, 72 hours, 4.63 μM): −76.31% | Cell death #2 (%) ([1]; PC3, 72 hours, 4.63 μM): −66.59% | Cell death #3 (%) ([1]; PC3, 72 hours, 4.63 μM): −54.63% | Cell death (%) MEAN ([1]; PC3, 72 hours, 4.63 μM): −65.85% | Cell death #1 (%) ([1]; PC3, 72 hours, 13.89 μM): −45.54% | Cell death #2 (%) ([1]; PC3, 72 hours, 13.89 μM): −47.91% | Cell death #3 (%) ([1]; PC3, 72 hours, 13.89 μM): −30.21% | Cell death (%) MEAN ([1]; PC3, 72 hours, 13.89 μM): −41.22% | Cell death #1 (%) ([1]; PC3, 72 hours, 41.67 μM): 9.78% | Cell death #2 (%) ([1]; PC3, 72 hours, 41.67 μM): 23.24% | Cell death #3 (%) ([1]; PC3, 72 hours, 41.67 μM): 14.02% | Cell death (%) MEAN ([1]; PC3, 72 hours, 41.67 μM): 15.68% | Cell death #1 (%) ([1]; PC3, 72 hours, 125.00 μM): 75.56% | Cell death #2 (%) ([1]; PC3, 72 hours, 125.00 μM): 74.94% | Cell death #3 (%) ([1]; PC3, 72 hours, 125.00 μM): 74.82% | Cell death (%) MEAN ([1]; PC3, 72 hours, 125.00 μM): 75.11% | prostate cancer cell death as compared to enterolactone ([1]; PC3, at higher concentrations, 24 hours and 72 hours post-treatment): increased prostate cancer cell death as compared to enterolactone | TP Concentration [2]: 34.8 µM | TP concentration, fold lower than (+/−) enterolactone TP [2]: 4-6 fold | dTP Concentration [2]: 21.4 µM | dTP and TP concentrations compared with anti-cancer drugs tested in this assay [2]: higher than >90% of the anti-cancer drugs | fold difference between dTP and TP [2]: ≤ 3 fold | similarity of dTP concentrations between all three compounds [2]: ≤ 2 fold
